Experimental data taken from patent US10238631B2, “Sesquiterpene derivatives and their use in inflammation or cancer treatment” (Academia Sinica, priority 2014, dated 2019).
Like-named read-outs stand apart in the source and are kept apart here.

Assays:
[1] = test system: RAW264.7 (normal macrophage); assay: MTT cell viability assay, RAW264.7 macrophages; assay type: cell-based, mouse; conditions: Mus musculus, RAW264.7, 24 h
Description: (§1) Normal or cancer cells (2×10^3 to 1×10^4 cells/well) were seeded in 96-well plate for overnight and treated with different compounds for 24 h to 72 h. Cells growth were determined by MTT-based colorimetric assays according to. Viability of the test cells treated with vehicle (0.5% DMSO) only was defined as 100% viable. Survival of cells after treatment with DETDs was calculated using the following formula: viable cell number (%)=OD570 (treated cell culture)/OD570 (vehicle control)×100.
(§2) Marcophages (2×10^5 cells/well in 96-well plate) were treated with compounds for 1 h, then incubated further for 24 h with or without the presence of […] LPS in the cultural medium. Nitrite levels in cell culture medium were determined by the Griess reaction method. In parallel to the Griess assays, macrophage cell viabilities were determined using the MTT based colorimetric assay.

A375 (BRAF mutation) = assay: MTT cell viability assay, A375 melanoma; assay type: cell-based, human; conditions: Homo sapiens, A-375, 24 h, read-out: IC50 on cell viability, A375 (BRAF mutation)
Description: as §1
(§3) Several genes are involved in melanoma development and pathology; specifically, mutation in V-raf murine sarcoma viral oncogene homolog B1 (B-RAF) occurs approximately 50-60% and in neuroblastoma RAS viral oncogene homolog (N-RAS) occurs about 30% of malignant melanomas. A spectrum of wild-type or mutated melanoma cell lines including B16-F10, MeWo, A375, A2058, HTB-68, and melanocyte were used to study anti-melanoma cell proliferation activity of parental phytocompound DET and newly synthesized DETDs.
To investigate whether or not DETD-35 show synergism with PLX4032 against A375 melanoma cells, we performed anti-proliferation assay using MTT reagent to obtain IC50 of each compound. […] The synergistic effect was quantified by combination index (CI) analysis as stated above.

[2] = test system: TS/A (ER+, Her2−) murine mammary cancer cells; assay: MTT cell viability assay, TS/A cells; assay type: cell-based; conditions: Mus musculus, 24 h, read-out: IC50 on cell viability, TS/A (ER+, Her2−)
Description: as §1
(§4) Sixty DETDs were derived from parental compound […] and tested for anti-breast cancer cell activity.

[3] = test system: LPS-induced nitric oxide (NO) production in RAW 264.7 cells; assay: Nitric oxide production in LPS-stimulated macrophages (Griess); assay type: cell-based, mouse; conditions: Mus musculus; LPS-stimulated RAW264.7, nitrite 24 h after LPS
Description: as §2
LPS from the outer membrane of Gram-negative bacteria can induce mRNA or protein levels of inducible nitric oxide synthase (iNOS), which catalyzes oxidative deamination of L-arginine to produce nitric oxide (NO). Once NO is predominantly produced, it interacts with superoxide anion and generates highly reactive oxidants resulting in cellular inflammation, DNA, protein and tissue damages, carcinogenesis, and antiapoptosis. We used in vitro LPS stimulated inflammation in RAW264.7 cell system to evaluate the effect of DET and its derivatives DETDs on NO production by determination of nitrite level (equivalent to NO level) in culture medium 24 h after LPS treatment.

[4] = test system: MDA-MB-231 (ER−, PR−, Her2−) human breast cancer cells; assay: MTT cell viability assay, MDA-MB-231 cells; assay type: cell-based; conditions: Homo sapiens, MDA-MB-231, 24 h, read-out: IC50 on cell viability, MDA-MB-231 (ER−, PR−, Her2−)
Description: as §1, §4

A2058 (BRAF mutation) = assay: MTT cell viability assay, A2058 melanoma; assay type: cell-based, human; conditions: Homo sapiens, A2058, 24 h
Description: as §1, §3

[5] = test system: MeWo (No NRAS or BRAF mutation); assay: MTT cell viability assay, MeWo melanoma; assay type: cell-based, human; conditions: Homo sapiens, MeWo, 24 h
Description: as §1, §3

B16-F10 (NRAS mutation) = assay: MTT cell viability assay, B16-F10 melanoma; assay type: cell-based; conditions: Mus musculus, B16-F10, 24 h, read-out: IC50 on cell viability, B16-F10 (NRAS mutation)
Description: as §1, §3

[6] = test system: Melanocyte (Normal cells); assay: MTT cell viability assay, normal melanocytes; assay type: cell-based, human; conditions: Homo sapiens, Melanocyte, 24 h
Description: as §1, §3

HTB-68 (NRAS mutation) = assay: MTT cell viability assay, HTB-68 melanoma; assay type: cell-based, human; conditions: Homo sapiens, 24 h
Description: as §1, §3

[7] = test system: M10 normal mammary epithelial cells; assay: MTT cell viability assay, M10 normal cells; assay type: cell-based, human; conditions: Homo sapiens, Epithelial cell, 24 h
Description: as §1, §4

[8] = test system: MCF-7 (ER+, Her2−) human breast cancer cells; assay: MTT cell viability assay, MCF-7 cells; assay type: cell-based; conditions: MCF7, 24 h, read-out: IC50 on cell viability, MCF-7 (ER+, Her2−)
Description: as §1, §4

Row | SMILES | IC50 (A375 (BRAF mutation); 24 h, MTT) [µM] | IC50 [2] [µM] | IC50 [3] [µM] | IC50 [4] [µM] | IC50 (A2058 (BRAF mutation)) [µM] | IC50 [5] [µM] | IC50 (B16-F10 (NRAS mutation); 24 h) [µM] | IC50 (HTB-68 (NRAS mutation)) [µM] | IC50 [8] [µM] | IC50 [1] [µM] | IC50 [6] [µM] | IC50 [7] [µM] | IC50 (A375 (BRAF mutation)) [µM] | IC50 (B16-F10 (NRAS mutation)) [µM]
1 | C=C1C(=O)OC2CC3=C[C@@H](C/C(C)=C/C(O)[C@H]12)OC3=O (stereo partly drawn) [DETD-3] | > 10 | 7.5 | > 10 | > 7.5 | > 10 | > 10 | > 10 | > 10 | > 7.5 | > 10 | > 10 | > 7.5 |  | 
2 | C=C1C(=O)OC2CC3=C[C@@H](C/C(C)=C/[C@@H](OC(=O)[C@H](OC)c4ccc5ccccc5c4)[C@H]12)OC3=O (stereo partly drawn) [DETD-57] | 4.2 | > 7.5 | > 10 | > 15 | 8.3 | > 10 | 8.1 | 8 | > 7.5 | > 10 | > 10 | > 7.5 |  | 
3 | C=C1C(=O)OC2CC3=C[C@@H](C/C(C)=C/C(OC(=O)Cc4ccc5cc(OC)ccc5c4)[C@H]12)OC3=O (stereo partly drawn) [DETD-46] | 2.6 | 3.8 | 3.1 | 7.3 | 5 | 6.3 | 5.4 | 4.5 | > 7.5 | > 10 | > 10 | > 7.5 |  | 
4 | C=C1C(=O)OC2CC3=C[C@@H](C/C(C)=C/C(OC(=O)/C=C/c4ccco4)[C@H]12)OC3=O (stereo partly drawn) [DETD-29] | > 10 | 2.2 | 1.6 | 4.9 | > 10 | > 10 | 6.7 | > 10 | 4.1 | > 10 | > 10 | > 7.5 |  | 
5 | C=C1C(=O)OC2CC3=C[C@@H](C/C(C)=C/C(OC(=O)CC(O)(C(C)C)C(C)C)[C@H]12)OC3=O (stereo partly drawn) [DETD-23] |  | 2.4 | 3.8 | 5.9 | > 10 | > 10 |  | > 10 | 2.5 | > 10 | > 10 | > 7.5 | > 10 | 8.6
6 | C=C1C(=O)OC2CC3=C[C@@H](C/C(C)=C/C(OC(=O)/C=C/C)[C@H]12)OC3=O (stereo partly drawn) [DETD-24] | > 10 | 2.3 | 4.4 | > 7.5 | > 10 | > 10 | > 10 | > 10 | 3.9 | > 10 | > 10 | > 7.5 |  | 
7 | C=C1C(=O)OC2CC3=C[C@@H](C/C(C)=C/C(OC(=O)C(CC)CCCC)[C@H]12)OC3=O (stereo partly drawn) [DETD-21] | > 10 | 4 | 4.7 | > 7.5 | > 10 | > 10 | > 10 | > 10 | 4.5 | > 10 | > 10 | > 7.5 |  | 
8 | C=C1C(=O)OC2CC3=C[C@@H](C/C(C)=C/C(OC(=O)/C=C/c4cc(OC)c(OC)c(OC)c4)[C@H]12)OC3=O (stereo partly drawn) [DETD-7] | 4.9 | 1.8 | 2.2 | 6.1 | 5.5 | > 10 | 4.8 | 8.4 | 2.3 | > 10 | > 10 | > 7.5 |  | 
9 | C=C1C(=O)OC2CC3=C[C@@H](C/C(C)=C/C(OC(=O)c4ccccc4)[C@H]12)OC3=O (stereo partly drawn) [DETD-31] | 4.3 | 2 | 3.2 | 4.5 | > 10 | > 10 | 2.9 | > 10 | 5.9 | > 10 | > 10 | > 7.5 |  | 

Continued, in another order:

Row | IC50 (A375 (BRAF mutation); 24 h, MTT) [µM] | IC50 [2] [µM] | IC50 [3] [µM] | IC50 [4] [µM] | IC50 (A2058 (BRAF mutation)) [µM] | IC50 [5] [µM] | IC50 (B16-F10 (NRAS mutation); 24 h) [µM] | IC50 (HTB-68 (NRAS mutation)) [µM] | IC50 [8] [µM] | SMILES | IC50 [1] [µM] | IC50 [6] [µM] | IC50 [7] [µM] | IC50 (A375 (BRAF mutation)) [µM] | IC50 (B16-F10 (NRAS mutation)) [µM]
10 | 4.9 | > 7.5 | 3.4 | 9.5 | > 10 | > 10 | > 10 | > 10 | > 7.5 | C=C1C(=O)OC2CC3=C[C@@H](C/C(C)=C/C(OC(=O)/C=C/c4ccc(OC)c(OC)c4)[C@H]12)OC3=O (stereo partly drawn) [DETD-49] | > 10 | > 10 | > 7.5 |  | 
11 | > 10 | 1.8 | 2.2 | 6.2 | > 10 | > 10 | 4.5 | > 10 | 3.4 | C=C(C)C(=O)OC1/C=C(\C)C[C@@H]2C=C(CC3OC(=O)C(=C)[C@@H]13)C(=O)O2 (stereo partly drawn) [DETD-4] | > 10 | > 10 | > 7.5 |  | 
12 | > 10 | 2.8 | 3.5 | 5 | > 10 | > 10 | 5.5 | > 10 | 5.3 | C=C1C(=O)OC2CC3=C[C@@H](C/C(C)=C/C(OC(=O)c4cc5ccccc5s4)[C@H]12)OC3=O (stereo partly drawn) [DETD-41] | > 10 | > 10 | > 7.5 |  | 
13 | > 10 | 3.3 | 3.2 | 7 | > 10 | > 10 | 7.2 | > 10 | 4.2 | C=C1C(=O)OC2CC3=C[C@@H](C/C(C)=C/C(OC(=O)/C=C(\C)C(C)C)[C@H]12)OC3=O (stereo partly drawn) [DETD-12] | > 10 | > 10 | > 7.5 |  | 
14 | 3.5 | 2.2 | 3.4 | 7 | 8.5 | > 10 | 7.3 | 7.6 | > 7.5 | C=C1C(=O)OC2CC3=C[C@@H](C/C(C)=C/C(OC(=O)Cc4ccc(OC)cc4)[C@H]12)OC3=O (stereo partly drawn) [DETD-44] | > 10 | > 10 | > 7.5 |  | 
15 | > 10 | > 7.5 | > 10 | > 15 | > 10 | > 10 | > 10 | > 10 | > 7.5 | C=C1C(=O)OC2CC3=C[C@@H](C/C(C)=C/C(OC(=O)CCc4cccc5ccccc45)[C@H]12)OC3=O (stereo partly drawn) [DETD-51] | > 10 | > 10 | > 7.5 |  | 
16 | > 10 | 3.1 | 4.5 | 4.9 | > 10 | > 10 | 4.3 | > 10 | 6.1 | C=C1C(=O)OC2CC3=C[C@@H](C/C(C)=C/C(OC(=O)c4cc5ccccc5o4)[C@H]12)OC3=O (stereo partly drawn) [DETD-40] | > 10 | > 10 | > 7.5 |  | 
17 | > 10 | 2.1 | 3.2 | 7 | > 10 | > 10 | > 10 | > 10 | 3.9 | C=C1C(=O)OC2CC3=C[C@@H](C/C(C)=C/C(OC(=O)C(CC)CC)[C@H]12)OC3=O (stereo partly drawn) [DETD-16] | > 10 | > 10 | > 7.5 |  | 
